Assay results taken from ChEMBL document CHEMBL1909540, “Synthesis and antimycobacterial evaluation of 3a,4-dihydro-3H-indeno [1,2-c] pyrazole-2-carboxamide analogues” (Eur J Med Chem, 2011).
Converted amounts (≈) assume the structure as drawn.

What was measured:
Vero = assay: Cytotoxicity against african green monkey Vero cells after 72 hrs by MTT assay; assay type: cell-based; details: Chlorocebus sabaeus
[1] = tested on: Mycobacterium tuberculosis; assay: Antitubercular activity against Mycobacterium tuberculosis H37Rv by two fold serial dilution method; assay type: functional
[2] = Safety index, ratio of IC50 for african green monkey Vero cells to MIC for Mycobacterium tuberculosis H37Rv; assay type: toxicity, cell-based

Row | SMILES | IC50 (Vero) | MIC [1] | selectivity ratio [2]
1 | COc1cc2c(cc1OC)C1=NN(C(=O)Nc3ccc([N+](=O)[O-])cc3)C(c3ccncc3)C1C2 (stereo not drawn) | 68 µM | 6.8 µM (≈ 3.12 µg/mL) | 
2 | COc1cc2c(cc1OC)C1=NN(C(=O)Nc3ccc(Cl)cc3)C(c3ccncc3)C1C2 (stereo not drawn) | > 139 µM | 6.96 µM (≈ 3.12 µg/mL) | 
3 | COc1cc2c(cc1OC)C1=NN(C(=O)Nc3ccc(Cl)cc3)C(c3ccccc3Cl)C1C2 (stereo not drawn) |  | 13.9 µM (≈ 6.71 µg/mL) | 
4 | COc1cc2c(cc1OC)C1=NN(C(=O)Nc3ccc(Cl)cc3)C(c3ccc(F)cc3)C1C2 (stereo not drawn) | > 134 µM | 0.83 µM (≈ 0.387 µg/mL) | > 161
5 | COc1ccc(C2C3Cc4cc(OC)c(OC)cc4C3=NN2C(=O)Nc2ccc(Cl)cc2)cc1OC (stereo not drawn) |  | 9.8 µM (≈ 4.98 µg/mL) | 
6 | COc1cc2c(cc1OC)C1=NN(C(=O)Nc3ccc(Cl)cc3)C(c3ccccc3)C1C2 (stereo not drawn) | > 139 µM | 6.97 µM (≈ 3.12 µg/mL) | 
7 | COc1ccc(C2C3Cc4cc(OC)c(OC)cc4C3=NN2C(=O)Nc2ccc(Cl)cc2)cc1 (stereo not drawn) |  | 10.5 µM (≈ 5 µg/mL) | 
8 | COc1cc2c(cc1OC)C1=NN(C(=O)Nc3ccc([N+](=O)[O-])cc3)C(c3ccccc3Cl)C1C2 (stereo not drawn) |  | 12.7 µM (≈ 6.25 µg/mL) | 
9 | COc1cc2c(cc1OC)C1=NN(C(=O)Nc3ccc([N+](=O)[O-])cc3)C(c3ccc(F)cc3)C1C2 (stereo not drawn) | 94.8 µM | 3.16 µM (≈ 1.51 µg/mL) | 
10 | COc1ccc(C2C3Cc4cc(OC)c(OC)cc4C3=NN2C(=O)Nc2ccc([N+](=O)[O-])cc2)cc1OC (stereo not drawn) |  | 12.1 µM (≈ 6.25 µg/mL) | 
11 | COc1cc2c(cc1OC)C1=NN(C(=O)Nc3ccc([N+](=O)[O-])cc3)C(c3ccccc3)C1C2 (stereo not drawn) | 51.1 µM | 6.81 µM (≈ 3.12 µg/mL) | 
12 | COc1ccc(C2C3Cc4cc(OC)c(OC)cc4C3=NN2C(=O)Nc2ccc([N+](=O)[O-])cc2)cc1 (stereo not drawn) |  | 12.8 µM (≈ 6.24 µg/mL) | 
13 | COc1cc2c(cc1OC)C1=NN(C(N)=O)C(c3ccncc3)C1C2 (stereo not drawn) |  | 11.8 µM (≈ 3.99 µg/mL) | 
14 | COc1cc2c(cc1OC)C1=NN(C(N)=O)C(c3ccccc3Cl)C1C2 (stereo not drawn) |  | 10.8 µM (≈ 4 µg/mL) | 
15 | COc1cc2c(cc1OC)C1=NN(C(N)=O)C(c3ccc(F)cc3)C1C2 (stereo not drawn) | 177 µM | 8.44 µM (≈ 3 µg/mL) | 
16 | COc1ccc(C2C3Cc4cc(OC)c(OC)cc4C3=NN2C(N)=O)cc1OC (stereo not drawn) |  | 10.1 µM (≈ 3.99 µg/mL) | 
17 | COc1cc2c(cc1OC)C1=NN(C(N)=O)C(c3ccccc3)C1C2 (stereo not drawn) |  | 11.8 µM (≈ 3.99 µg/mL) | 
18 | COc1ccc(C2C3Cc4cc(OC)c(OC)cc4C3=NN2C(N)=O)cc1 (stereo not drawn) |  | 10.9 µM (≈ 3.99 µg/mL) | 
19 | NNC(=O)c1ccncc1 [ISONIAZID] | > 456 µM | 0.56 µM (≈ 0.0768 µg/mL) | 
